The test system of data set [1] is Rattus norvegicus. In words: Hypoglycemic activity in alloxan-induced diabetic Wistar rat model assessed as reduction in plasma glucose level at 10 mg/kg, po for 15 days measured on day 15. It counts as functional. Set-up: scale not given: the % may be the effect or the level left.
Data set [2] deals with Rattus norvegicus. Nature of the data set: Hypolipidemic activity in alloxan-induced diabetic Wistar rat model assessed as reduction in triglyceride level at 3 mg/kg, po for 15 days measured on day 15. Also noted: scale not given: the % may be the effect or the level left. In kind it is functional.
Data set [3] concerns Rattus norvegicus. Nature of the data set: Hypolipidemic activity in alloxan-induced diabetic Wistar rat model assessed as reduction in triglyceride level at 10 mg/kg, po for 15 days measured on day 15. In kind it is functional. Also noted: scale not given: the % may be the effect or the level left.
Data set [4] concerns Rattus norvegicus. Nature of the data set: Hypoglycemic activity in alloxan-induced diabetic Wistar rat model assessed as reduction in plasma glucose level at 30 mg/kg, po for 15 days measured on day 15. It counts as functional. Also noted: scale not given: the % may be the effect or the level left.
The test system of data set [5] is Rattus norvegicus. Nature of the data set: Hypolipidemic activity in alloxan-induced diabetic Wistar rat model assessed as reduction in triglyceride level at 100 mg/kg, po for 15 days measured on day 15. It counts as functional. Also noted: scale not given: the % may be the effect or the level left.
The subject of data set [6] is Rattus norvegicus. Nature of the data set: Hypoglycemic activity in alloxan-induced diabetic Wistar rat model assessed as reduction in plasma glucose level at 100 mg/kg, po for 15 days measured on day 15. It counts as functional. Also noted: scale not given: the % may be the effect or the level left.
Data set [7] has as its system Rattus norvegicus. In words: Hypoglycemic activity in alloxan-induced diabetic Wistar rat model assessed as reduction in plasma glucose level at 3 mg/kg, po for 15 days measured on day 15. Also noted: scale not given: the % may be the effect or the level left. In kind it is functional.
The subject of data set [8] is Rattus norvegicus. Nature of the data set: Hypolipidemic activity in alloxan-induced diabetic Wistar rat model assessed as reduction in triglyceride level at 30 mg/kg, po for 15 days measured on day 15. In kind it is functional. Also noted: scale not given: the % may be the effect or the level left.
Data set [9] relates to Rattus norvegicus. In words: Toxicity in Wistar rat at 3 to 100 mg/kg, po for 15 days. In kind it is organism-based. Set-up: dose 3-100 mg/kg, route oral. The following applies: in vivo, 360 h.

Turning to `Cc1nc(COc2ccc(/C=C3\SC(=O)NC3=O)cc2)cs1`, the Activity in the data set on Rattus norvegicus [1] came to 10.64%; in the data set with Rattus norvegicus [2] it was 18.62%; in the data set with Rattus norvegicus [3], 19.2%; in the data set on Rattus norvegicus [4], 14.73%; in the data set on Rattus norvegicus [5], 38.92%; in the data set on Rattus norvegicus [6] it was 22.87%. Moreover, the Activity in the data set with Rattus norvegicus [7] is on record as 10.42%; in the data set with Rattus norvegicus [8], 26.4%; with Rattus norvegicus [9] it was “Non-toxic”.

For the compound `O=C1NC(=O)/C(=C/c2ccc(OCc3csc(-c4ccccc4)n3)cc2)S1`, the Activity with Rattus norvegicus [1] worked out at 20.36%; with Rattus norvegicus [2], 25.24%; with Rattus norvegicus [3], 21.69%; in the data set on Rattus norvegicus [4], 22.64%; in the data set with Rattus norvegicus [5], 53.96%; in the data set with Rattus norvegicus [6] it was 29.73%. For the same compound, the Activity is 17.75% in the data set on Rattus norvegicus [7], 40.26% in the data set on Rattus norvegicus [8] and “Non-toxic” with Rattus norvegicus [9].

On to `O=C1NC(=O)/C(=C/c2ccc(OCCSc3nnc(-c4ccccc4)[nH]3)cc2)S1`, for which the Activity in the data set on Rattus norvegicus [1] is on record as 10.64%; in the data set with Rattus norvegicus [2], 18.62%; in the data set on Rattus norvegicus [3] it was 19.2%; with Rattus norvegicus [4], 14.73%; with Rattus norvegicus [5] it was 38.92%; in the data set with Rattus norvegicus [6], 22.87%. Moreover, the Activity in the data set on Rattus norvegicus [7] is 10.42%; in the data set with Rattus norvegicus [8], 26.4%; with Rattus norvegicus [9], “Non-toxic”.

Regarding `O=C1NC(=O)/C(=C/c2ccc(OCCSc3nnc(Cc4ccccc4)[nH]3)cc2)S1`, the Activity came to 19.36% with Rattus norvegicus [1]; 22.45% in the data set with Rattus norvegicus [2]; 22.81% with Rattus norvegicus [3]; 28.54% in the data set with Rattus norvegicus [4]; 41.87% with Rattus norvegicus [5]; 34.38% with Rattus norvegicus [6]. Also, the Activity is on record as 18.28% in the data set on Rattus norvegicus [7], 38.25% in the data set on Rattus norvegicus [8] and “Non-toxic” in the data set on Rattus norvegicus [9].

As to `Cc1ccc(-c2nnc(SCCOc3ccc(/C=C4\SC(=O)NC4=O)cc3)[nH]2)cc1`, the Activity is 20.36% in the data set with Rattus norvegicus [1]; 25.24% in the data set on Rattus norvegicus [2]; 21.69% with Rattus norvegicus [3]; 22.64% in the data set with Rattus norvegicus [4]; 53.96% in the data set with Rattus norvegicus [5]; 29.73% in the data set with Rattus norvegicus [6]. Further, the Activity is reported as 16.87% with Rattus norvegicus [7], 40.26% in the data set with Rattus norvegicus [8] and “Non-toxic” in the data set on Rattus norvegicus [9].

Take `O=C1NC(=O)/C(=C/c2ccc(OCCSc3nnc(-c4ccc([N+](=O)[O-])cc4)[nH]3)cc2)S1`: the Activity in the data set on Rattus norvegicus [1] is 13.85%; in the data set on Rattus norvegicus [2], 14.12%; in the data set on Rattus norvegicus [3], 15.32%; with Rattus norvegicus [4], 16.02%; in the data set on Rattus norvegicus [5], 22.08%; with Rattus norvegicus [6] it was 18.04%. Also, the Activity with Rattus norvegicus [7] is given as 11.92%; with Rattus norvegicus [8], 18.56%; in the data set on Rattus norvegicus [9] it was “Non-toxic”.

With `O=C1NC(=O)/C(=C/c2ccc(OCCSc3nnc(-c4ccccc4[N+](=O)[O-])[nH]3)cc2)S1`, the Activity with Rattus norvegicus [1] worked out at 15.28%; in the data set with Rattus norvegicus [2] it was 19.84%; with Rattus norvegicus [3], 20.91%; with Rattus norvegicus [4] it was 20.14%; in the data set with Rattus norvegicus [5], 49.12%; in the data set with Rattus norvegicus [6], 26.84%. Further, the Activity is 14.58% with Rattus norvegicus [7], 38.64% in the data set on Rattus norvegicus [8] and “Non-toxic” with Rattus norvegicus [9].

As for `O=C1NC(=O)/C(=C/c2ccc(OCCSc3nnc(-c4ccc(Cl)cc4)[nH]3)cc2)S1`, the Activity is 19.63% in the data set with Rattus norvegicus [1]; 23.85% with Rattus norvegicus [2]; 24.56% with Rattus norvegicus [3]; 23.68% in the data set on Rattus norvegicus [4]; 41.56% in the data set on Rattus norvegicus [5]; 28.85% with Rattus norvegicus [6]. Further, the Activity in the data set with Rattus norvegicus [7] is listed as 16.04%; with Rattus norvegicus [8] it was 32.92%; with Rattus norvegicus [9] it was “Non-toxic”.

Consider `O=C1NC(=O)/C(=C/c2ccc(OCCSc3nnc(-c4ccc(Br)cc4)[nH]3)cc2)S1`, for which the Activity was found to be 20.43% with Rattus norvegicus [1]; 28.35% in the data set on Rattus norvegicus [2]; 26.87% in the data set with Rattus norvegicus [3]; 19.52% in the data set on Rattus norvegicus [4]; 45.68% with Rattus norvegicus [5]; 28.51% in the data set with Rattus norvegicus [6]. Moreover, the results for the Activity in the data set on Rattus norvegicus [7], with Rattus norvegicus [8] and in the data set with Rattus norvegicus [9] were 13.15%, 39.45% and “Non-toxic”, respectively.

Take `COc1ccc(-c2nnc(SCCOc3ccc(/C=C4\SC(=O)NC4=O)cc3)[nH]2)cc1`: the Activity is 33.62% in the data set with Rattus norvegicus [1]; 43.14% with Rattus norvegicus [2]; 42.63% with Rattus norvegicus [3]; 40.04% in the data set on Rattus norvegicus [4]; 71.24% in the data set on Rattus norvegicus [5]; 43.42% with Rattus norvegicus [6]. The Activity with Rattus norvegicus [7] is 41.28%; in the data set with Rattus norvegicus [8] it was 59.46%; with Rattus norvegicus [9], “Non-toxic”.

Turning to `O=C1NC(=O)/C(=C/c2ccc(OCCSc3nnc(-c4ccccc4)o3)cc2)S1`, the Activity in the data set on Rattus norvegicus [1] stood at 14.64%; with Rattus norvegicus [2], 21.56%; in the data set with Rattus norvegicus [3] it was 22.18%; in the data set on Rattus norvegicus [4], 16.13%; in the data set with Rattus norvegicus [5] it was 33.12%; with Rattus norvegicus [6], 20.08%. The results for the Activity with Rattus norvegicus [7], with Rattus norvegicus [8] and in the data set with Rattus norvegicus [9] were 11.62%, 24.05% and “Non-toxic”, respectively.

Regarding `O=C1NC(=O)/C(=C/c2ccc(OCCSc3nnc(Cc4ccccc4)o3)cc2)S1`, the Activity was 16.82% in the data set on Rattus norvegicus [1]; 18.52% in the data set with Rattus norvegicus [2]; 20.54% in the data set with Rattus norvegicus [3]; 19.08% in the data set with Rattus norvegicus [4]; 34.56% in the data set on Rattus norvegicus [5]; 23.08% in the data set on Rattus norvegicus [6]. The Activity is recorded as 14.23% in the data set with Rattus norvegicus [7], 28.02% with Rattus norvegicus [8] and “Non-toxic” in the data set with Rattus norvegicus [9].

Turning to `O=C1NC(=O)/C(=C/c2ccc(OCCSc3nnc(-c4cccnc4)o3)cc2)S1`, the Activity with Rattus norvegicus [1] is given as 33.16%; with Rattus norvegicus [2], 40.66%; with Rattus norvegicus [3], 45.1%; in the data set with Rattus norvegicus [4], 39.34%; in the data set on Rattus norvegicus [5] it was 72.32%; in the data set with Rattus norvegicus [6], 50.09%. Besides, the Activity is on record as 24.35% with Rattus norvegicus [7], 60.78% in the data set on Rattus norvegicus [8] and “Non-toxic” in the data set on Rattus norvegicus [9].

Consider `O=C1NC(=O)/C(=C/c2ccc(OCCSc3nnc(-c4ccncc4)o3)cc2)S1`, for which the Activity is recorded as 32.62% in the data set with Rattus norvegicus [1]; 40.15% in the data set on Rattus norvegicus [2]; 42.17% in the data set on Rattus norvegicus [3]; 40% in the data set on Rattus norvegicus [4]; 69.72% with Rattus norvegicus [5]; 43.42% in the data set with Rattus norvegicus [6]. Moreover, the Activity with Rattus norvegicus [7] is given as 23.46%; in the data set on Rattus norvegicus [8], 58.48%; with Rattus norvegicus [9], “Non-toxic”.

As to `CCc1ccc(CCOc2ccc(CC3SC(=O)NC3=O)cc2)nc1` (centres undefined) [PIOGLITAZONE], the Activity in the data set with Rattus norvegicus [1] was found to be 35.25%; in the data set on Rattus norvegicus [2], 41.6%; in the data set on Rattus norvegicus [3], 47.25%; in the data set on Rattus norvegicus [4], 40.96%; in the data set on Rattus norvegicus [5] it was 75.43%; with Rattus norvegicus [6], 45.89%. In addition, the results for the Activity in the data set on Rattus norvegicus [7] and in the data set with Rattus norvegicus [8] were 47.02% and 64.59%, respectively.

The values are drawn from ChEMBL document CHEMBL2034821, “Synthesis, hypoglycemic and hypolipidemic activities of novel thiazolidinedione derivatives containing thiazole/triazole/oxadiazole ring” (Eur J Med Chem, 2012).
